Data published in US10004701B2, “Methods and compositions for treating infection” (UNIVERSITY OF ROCHESTER, priority 2012, dated 2018).
Where a name gives a salt, the structure may show the parent alone. Read-outs that look alike come from different tables or passages of the source.

Key:
Assay in all cases: AK assay 384-well format, Prestwick library screening
K. pneumoniae = format: cell-based, Klebsiella pneumoniae; settings: 50 μM final drug concentration; for fold induction at 50 µM: Klebsiella pneumoniae, 3 h
E. faecium = format: cell-based, Enterococcus faecium; settings: 50 μM final drug concentration; for fold induction at 50 µM: Enterococcus faecium, 3 h
E. cloacae = format: cell-based, Enterobacter cloacae; settings: 50 μM final drug concentration; for fold induction at 50 µM: Enterobacter cloacae, 3 h
[1] = tested on: S. aureus strain USA300-0114; format: cell-based, Staphylococcus aureus; settings: 50 μM final drug concentration; for fold induction at 50 µM: Staphylococcus aureus, USA300, 3 h
[2] = tested on: A. baumannii strain 98-37-09; format: cell-based, Acinetobacter baumannii; settings: 50 μM final drug concentration; for fold induction at 50 µM: Acinetobacter baumannii, 983709, 3 h
P. aeruginosa = format: cell-based, Pseudomonas aeruginosa; settings: 50 μM final drug concentration; for fold induction at 50 µM: Pseudomonas aeruginosa, 3 h
E. coli = format: cell-based, Escherichia coli; settings: 50 μM final drug concentration; for fold induction at 50 µM: Escherichia coli, 3 h
[3] = 384-well format, cutoff for positive-scoring molecules 3-fold increase, read-out: AK-based Prestwick Library Screening Results, K. pneumoniae (increase in extracellular AK activity)
[4] = 384-well format, cutoff for positive-scoring molecules 3-fold increase, read-out: AK-based Prestwick Library Screening Results, E. faecium (increase in extracellular AK activity)
[5] = 384-well format, cutoff for positive-scoring molecules 3-fold increase, read-out: AK-based Prestwick Library Screening Results, E. cloacae (increase in extracellular AK activity)
[6] = 384-well format, cutoff for positive-scoring molecules 3-fold increase, read-out: AK-based Prestwick Library Screening Results, S. aureus (increase in extracellular AK activity)
[7] = 384-well format, cutoff for positive-scoring molecules 3-fold increase, read-out: AK-based Prestwick Library Screening Results, A. baumannii (increase in extracellular AK activity)
[8] = 384-well format, cutoff for positive-scoring molecules 3-fold increase, read-out: AK-based Prestwick Library Screening Results, P. aeruginosa (increase in extracellular AK activity)
[9] = 384-well format, cutoff for positive-scoring molecules 3-fold increase, read-out: AK-based Prestwick Library Screening Results, E. coli (increase in extracellular AK activity)
[10] = cutoff for positive-scoring molecules 3-fold increase, read-out: AK-based Prestwick Library Screening Results, K. pneumoniae (fold increase in extracellular AK activity)
[11] = cutoff for positive-scoring molecules 3-fold increase, read-out: AK-based Prestwick Library Screening Results, E. faecium (fold increase in extracellular AK activity)
[12] = cutoff for positive-scoring molecules 3-fold increase, read-out: AK-based Prestwick Library Screening Results, E. cloacae (fold increase in extracellular AK activity)
[13] = cutoff for positive-scoring molecules 3-fold increase, read-out: AK-based Prestwick Library Screening Results, S. aureus (fold increase in extracellular AK activity)
[14] = cutoff for positive-scoring molecules 3-fold increase, read-out: AK-based Prestwick Library Screening Results, A. baumannii (fold increase in extracellular AK activity)
[15] = cutoff for positive-scoring molecules 3-fold increase, read-out: AK-based Prestwick Library Screening Results, P. aeruginosa (fold increase in extracellular AK activity)
[16] = cutoff for positive-scoring molecules 3-fold increase, read-out: AK-based Prestwick Library Screening Results, E. coli (fold increase in extracellular AK activity)

In the case of C[C@]1(OC(=O)/C=C/c2ccccc2)C[C@@H](O)[C@]2(O)C=CO[C@@H](O[C@@H]3O[C@H](CO)[C@@H](O)[C@H](O)[C@H]3O)[C@@H]21 [Harpagoside], the fold induction at 50 µM (K. pneumoniae; planktonic K. pneumoniae, positive cutoff 3-fold increase, read-out: AK-based Prestwick library screening result, K. pneumoniae (fold increase in extracellular AK activity)) is reported as 0.7, the fold induction at 50 µM (E. faecium; planktonic E. faecium, positive cutoff 3-fold increase, read-out: AK-based Prestwick library screening result, E. faecium (fold increase in extracellular AK activity)) is reported as 0.9 and the fold induction at 50 µM (E. cloacae; planktonic E. cloacae, positive cutoff 3-fold increase, read-out: AK-based Prestwick library screening result, E. cloacae (fold increase in extracellular AK activity)) is reported as 0.9. The fold induction at 50 µM ([1]; planktonic S. aureus, positive cutoff 3-fold increase, read-out: AK-based Prestwick library screening result, S. aureus (fold increase in extracellular AK activity)) was 0.8, the fold induction at 50 µM ([2]; planktonic A. baumannii, positive cutoff 3-fold increase, read-out: AK-based Prestwick library screening result, A. baumannii (fold increase in extracellular AK activity)) was 0.9 and the fold induction at 50 µM (P. aeruginosa; planktonic P. aeruginosa, positive cutoff 3-fold increase, read-out: AK-based Prestwick library screening result, P. aeruginosa (fold increase in extracellular AK activity)) was 0.8. For the same compound, the fold induction at 50 µM (E. coli; planktonic E. coli, positive cutoff 3-fold increase, read-out: AK-based Prestwick library screening result, E. coli (fold increase in extracellular AK activity)) was 0.8.
CO[C@H](C)[C@](O)(C(=O)OCC1=CCN2CC[C@H](O)[C@@H]12)C(C)C [Heliotrine] showed a fold induction at 50 µM (K. pneumoniae; planktonic, […], read-out: AK-based Prestwick Library Screening Results, K. pneumoniae (fold increase in extracellular AK activity)) of 1, a fold induction at 50 µM (E. faecium; planktonic, […], read-out: AK-based Prestwick Library Screening Results, E. faecium (fold increase in extracellular AK activity)) of 1 and a fold induction at 50 µM (E. cloacae; planktonic, […], read-out: AK-based Prestwick Library Screening Results, E. cloacae (fold increase in extracellular AK activity)) of 1.7. For the same compound, the fold induction at 50 µM ([1]; planktonic, […], read-out: AK-based Prestwick Library Screening Results, S. aureus (fold increase in extracellular AK activity)) was 1.4, the fold induction at 50 µM ([2]; planktonic, […], read-out: AK-based Prestwick Library Screening Results, A. baumannii (fold increase in extracellular AK activity)) was 1 and the fold induction at 50 µM (P. aeruginosa; planktonic, […], read-out: AK-based Prestwick Library Screening Results, P. aeruginosa (fold increase in extracellular AK activity)) was 1. For the same compound, the fold induction at 50 µM (E. coli; planktonic, […], read-out: AK-based Prestwick Library Screening Results, E. coli (fold increase in extracellular AK activity)) was 1.2.
C[C@H]1O[C@@H](O[C@H]2CC[C@]3(C=O)[C@H]4CC[C@]5(C)[C@@H](C6=CC(=O)OC6)CC[C@]5(O)[C@@H]4CC[C@]3(O)C2)C[C@H](O)[C@@H]1O [Helveticoside] was tested, and the “AK-based Prestwick Library Screening Results, K. pneumoniae (fold increase in extracellular AK activity)” value (K. pneumoniae; planktonic, […]) was 0.5, the “AK-based Prestwick Library Screening Results, E. faecium (fold increase in extracellular AK activity)” value (E. faecium; planktonic, […]) was 0.9 and the “AK-based Prestwick Library Screening Results, E. cloacae (fold increase in extracellular AK activity)” value (E. cloacae; planktonic, […]) was 0.4. For the same compound, the “AK-based Prestwick Library Screening Results, S. aureus (fold increase in extracellular AK activity)” value ([1]; planktonic, […]) was 0.4, the “AK-based Prestwick Library Screening Results, A. baumannii (fold increase in extracellular AK activity)” value ([2]; planktonic, […]) was 0.4 and the “AK-based Prestwick Library Screening Results, P. aeruginosa (fold increase in extracellular AK activity)” value (P. aeruginosa; planktonic, […]) was 0.4. For the same compound, the “AK-based Prestwick Library Screening Results, E. coli (fold increase in extracellular AK activity)” value (E. coli; planktonic, […]) was 0.5.
For C[N+]1(C)CCOC(O)(c2ccc(-c3ccc(C4(O)C[N+](C)(C)CCO4)cc3)cc2)C1.[Br-].[Br-] (centres unmarked) [Hemicholinium bromide], the “AK-based Prestwick Library Screening Results, K. pneumoniae (fold increase in extracellular AK activity)” value (K. pneumoniae; planktonic, […]) was 1.0, the “AK-based Prestwick Library Screening Results, E. faecium (fold increase in extracellular AK activity)” value (E. faecium; planktonic, […]) was 0.9 and the “AK-based Prestwick Library Screening Results, E. cloacae (fold increase in extracellular AK activity)” value (E. cloacae; planktonic, […]) was 2.0. The “AK-based Prestwick Library Screening Results, S. aureus (fold increase in extracellular AK activity)” value ([1]; planktonic, […]) was 1.0, the “AK-based Prestwick Library Screening Results, A. baumannii (fold increase in extracellular AK activity)” value ([2]; planktonic, […]) was 1.2 and the “AK-based Prestwick Library Screening Results, P. aeruginosa (fold increase in extracellular AK activity)” value (P. aeruginosa; planktonic, […]) was 0.9. The “AK-based Prestwick Library Screening Results, E. coli (fold increase in extracellular AK activity)” value (E. coli; planktonic, […]) was 1.1.
CC(N)CCCC(C)(C)O (centres unmarked) [Heptaminol hydrochloride] was tested, and the fold induction at 50 µM (K. pneumoniae; [3]) was 0.5, the fold induction at 50 µM (E. faecium; [4]) was 0.9 and the fold induction at 50 µM (E. cloacae; [5]) was 0.7. The fold induction at 50 µM [1, 6] was 0.7, the fold induction at 50 µM [2, 7] was 0.6 and the fold induction at 50 µM (P. aeruginosa; [8]) was 0.5. For the same compound, the fold induction at 50 µM (E. coli; [9]) was 0.8.
COc1ccc([C@@H]2CC(=O)c3c(O)cc(O)cc3O2)cc1O [Hesperetin] gave a fold induction at 50 µM (K. pneumoniae; [3]) of 0.9, a fold induction at 50 µM (E. faecium; [4]) of 0.9 and a fold induction at 50 µM (E. cloacae; [5]) of 1.3. For the same compound, the fold induction at 50 µM [1, 6] was 0.5, the fold induction at 50 µM [2, 7] was 1.1 and the fold induction at 50 µM (P. aeruginosa; [8]) was 0.9. It also gave a fold induction at 50 µM (E. coli; [9]) of 1.1.
In the case of COc1ccc([C@@H]2CC(=O)c3c(O)cc(O[C@@H]4O[C@H](CO[C@@H]5O[C@@H](C)[C@H](O)[C@@H](O)[C@H]5O)[C@@H](O)[C@H](O)[C@H]4O)cc3O2)cc1O [Hesperidin], the “AK-based Prestwick Library Screening Results, K. pneumoniae (fold increase in extracellular AK activity)” value (K. pneumoniae; planktonic, […]) is reported as 1.0, the “AK-based Prestwick Library Screening Results, E. faecium (fold increase in extracellular AK activity)” value (E. faecium; planktonic, […]) is reported as 1.1 and the “AK-based Prestwick Library Screening Results, E. cloacae (fold increase in extracellular AK activity)” value (E. cloacae; planktonic, […]) is reported as 1.4. For the same compound, the “AK-based Prestwick Library Screening Results, S. aureus (fold increase in extracellular AK activity)” value ([1]; planktonic, […]) was 1.3, the “AK-based Prestwick Library Screening Results, A. baumannii (fold increase in extracellular AK activity)” value ([2]; planktonic, […]) was 1.2 and the “AK-based Prestwick Library Screening Results, P. aeruginosa (fold increase in extracellular AK activity)” value (P. aeruginosa; planktonic, […]) was 1.0. The “AK-based Prestwick Library Screening Results, E. coli (fold increase in extracellular AK activity)” value (E. coli; planktonic, […]) was 1.1.
C[N+](C)(C)CCCCCC[N+](C)(C)C.O.O.[Br-].[Br-] [Hexamethonium dibromide dihydrate] was tested, and the “AK-based Prestwick Library Screening Results, K. pneumoniae (increase in extracellular AK activity)” value (K. pneumoniae; 384-well format, […]) was 0.7, the “AK-based Prestwick Library Screening Results, E. faecium (increase in extracellular AK activity)” value (E. faecium; 384-well format, […]) was 0.9 and the “AK-based Prestwick Library Screening Results, E. cloacae (increase in extracellular AK activity)” value (E. cloacae; 384-well format, […]) was 1.2. The “AK-based Prestwick Library Screening Results, S. aureus (increase in extracellular AK activity)” value ([1]; 384-well format, […]) was 0.7, the “AK-based Prestwick Library Screening Results, A. baumannii (increase in extracellular AK activity)” value ([2]; 384-well format, […]) was 0.9 and the “AK-based Prestwick Library Screening Results, P. aeruginosa (increase in extracellular AK activity)” value (P. aeruginosa; 384-well format, […]) was 0.8. For the same compound, the “AK-based Prestwick Library Screening Results, E. coli (increase in extracellular AK activity)” value (E. coli; 384-well format, […]) was 0.9.
With CC[C@H](c1ccc(O)cc1)[C@@H](CC)c1ccc(O)cc1 [Hexestrol] the fold induction at 50 µM (K. pneumoniae; [10]) was 0.7, the fold induction at 50 µM (E. faecium; [11]) was 1.2 and the fold induction at 50 µM (E. cloacae; [12]) was 1.6. The fold induction at 50 µM [1, 13] was 0.7, the fold induction at 50 µM [2, 14] was 3 and the fold induction at 50 µM (P. aeruginosa; [15]) was 1.1. It also gave a fold induction at 50 µM (E. coli; [16]) of 1.4.
CCCCC(CC)CN1CN(CC(CC)CCCC)CC(C)(N)C1 (centres unmarked) [Hexetidine] gave a fold induction at 50 µM (K. pneumoniae; planktonic, cutoff for positive 3-fold increase, read-out: AK-based Prestwick Library Screening Results, K. pneumoniae (fold increase in extracellular AK activity)) of 1.4, a fold induction at 50 µM (E. faecium; planktonic, cutoff for positive 3-fold increase, read-out: AK-based Prestwick Library Screening Results, E. faecium (fold increase in extracellular AK activity)) of 1.1 and a fold induction at 50 µM (E. cloacae; planktonic, cutoff for positive 3-fold increase, read-out: AK-based Prestwick Library Screening Results, E. cloacae (fold increase in extracellular AK activity)) of 1.6. It also gave a fold induction at 50 µM ([1]; planktonic, cutoff for positive 3-fold increase, read-out: AK-based Prestwick Library Screening Results, S. aureus (fold increase in extracellular AK activity)) of 1.2, a fold induction at 50 µM ([2]; planktonic, cutoff for positive 3-fold increase, read-out: AK-based Prestwick Library Screening Results, A. baumannii (fold increase in extracellular AK activity)) of 3 and a fold induction at 50 µM (P. aeruginosa; planktonic, cutoff for positive 3-fold increase, read-out: AK-based Prestwick Library Screening Results, P. aeruginosa (fold increase in extracellular AK activity)) of 1.1. It also gave a fold induction at 50 µM (E. coli; planktonic, cutoff for positive 3-fold increase, read-out: AK-based Prestwick Library Screening Results, E. coli (fold increase in extracellular AK activity)) of 1.5.
CC(CNC1CCCCC1)OC(=O)c1ccccc1 (centres unmarked) [Hexylcaine hydrochloride] gave a fold induction at 50 µM (K. pneumoniae; [10]) of 1, a fold induction at 50 µM (E. faecium; [11]) of 1 and a fold induction at 50 µM (E. cloacae; [12]) of 1.4. For the same compound, the fold induction at 50 µM [1, 13] was 1.3, the fold induction at 50 µM [2, 14] was 1.3 and the fold induction at 50 µM (P. aeruginosa; [15]) was 1.1. It also gave a fold induction at 50 µM (E. coli; [16]) of 1.2.
